Results from patent publication US4468399A, “2-[2-(2-Aminoalkyl-4-thiazolylmethylthio)alkyl]-amino-5-substituted-4-pyr imidones” (Eli Lilly and Company, priority 1983, dated 1984).

What was measured:
[1] = system: H2-receptor; conditions: cited from earlier work; for H2-receptor antagonist activity in words: prior art
[2] = system: acid secretion; assay: in vivo antisecretory assay, gastric fistula dogs, histamine-stimulated gastric secretion; conditions: for antisecretory potency relative to cimetidine, iv route: iv infusion over 30 minute period, histamine iv infusion; for recovery of acid secretions from an effective dose: after 3-4 hours
Protocol: An in vivo assay for the antisecretory action of drugs on acid secretion utilizes gastric fistula dogs with a vagally innervated gastric fistula and vagally denervated Heidenthain pouch. A steady-state gastric secretion is produced by the iv infusion of histamine. The antisecretory drugs under test are given either intravenously by infusion over a 30 minute period or orally 75 min. prior to collection of gastric secretion from the fistula. In this assay, 2-[2-(2-dimethylaminomethyl-4-thiazolylmethylthio)ethyl]amino-5-(3-pyridyl)methyl-4-pyrimidone was 11X cimetidine by the iv route and 14X cimetidine orally. The 6-methyl-2-pyridyl analog was 14.4X cimetidine intravenously.

[3] = molecular target: T1, H2 receptor (Rattus norvegicus, UniProt P25102); assay: H2 receptor blocking activity, histamine-induced relaxation of isolated rat uterine strips; format: cell-based, rat (female albino rats); conditions: antagonist 10^-5 molar, 30 minutes, dissociation constant from dose ratio of histamine ED50; read-out: -logKb (converted)
T1 construct: uterine horns removed therefrom and suspended at ambient temperature in isolated organ baths; from tissue; host or cells: isolated uterine horn strips of estrone-treated female albino rats
Protocol: The following assay for H2 receptor blocking activity was employed. Female albino rats are treated with estrone 24 hours prior to the initiation of the experiment. The rats are sacrificed and the uterine horns removed therefrom and suspended at ambient temperature in isolated organ baths containing De Jalon's solution. After equilibration, the uterine strips are exposed to 50 millimole aqueous potassium chloride, which produces a sustained contraction. When the uterus is so contracted, histamine produces a dosedependent H2 receptor-mediated relaxation. A control dose-response curve to histamine is constructed on each tissue. Following thorough washout of the histamine after obtaining the control dose-response curve, each antagonist (a compound of this invention) is added for 30 minutes at a concentration of 10^-5 molar. The uterine strips are then contracted with aqueous potassium chloride in the presence of the antagonist and a second dose-response curve to histamine obtained. In the presence of a competitive antagonist, the dose-response curve to histamine is shifted in parallel to the right with no depression of the maximum relative to the control curve. The dose ratio (DR) is calculated for each concentration of antagonist by dividing the ED50 of histamine in the presence of the competitive antagonist by the control ED50 for histamine. The dissociation constant (KB) of the antagonist is calculated from the dose-ratios by the following equation: […]
Cimetidine is included as an internal standard.
In the table, column 1 gives the name of the compound under test and column 2, the -logKb value for that compound.

[4] = system: H2 receptor; assay: H2 receptor blocking activity, isolated bullfrog gastric mucosa, histamine-stimulated acid secretion; format: cell-based, bullfrog (Rana catesbeiana); conditions: inhibition of acid secretion stimulated by 10^-5 M histamine; antagonist in serosal chamber; read-out: ED50 (the source's name)
Protocol: A second assay for H2 receptor blocking activity employs the isolated bullfrog gastric mucosa--see Warrick and Lin, Communications in Chem. Pathology and Pharmacology, 13, 149 (1976). The assay is carried out as follows: The gastric mucosa of the bullfrog (Rana catesbeiana) is separated from the musculature of the stomach and placed between a pair of Ussing chambers made of lucite. The chambers are filled with frog Ringer solution and acid secretion is stimulated by addition of histamine to the serosal side of the mucosa at a final concentration of 10^-5 M. Acid output is automatically titrated to pH 4.5. After steady response to 10^-5 M of histamine is established, the antagonist (a compound of this invention) is added to the serosal chamber and the maximal inhibition by each concentration of the H2 -antagonist is recorded. From the dose-response curve, the ED50 of the drug is calculated.
In Table 2, column 1 gives the substituent at 6 in the pyrimidone ring, column 2 the "B" group (see formula at the head of the Table), and column 3 the molar ED50.

T1 sequence (P25102 whole entry): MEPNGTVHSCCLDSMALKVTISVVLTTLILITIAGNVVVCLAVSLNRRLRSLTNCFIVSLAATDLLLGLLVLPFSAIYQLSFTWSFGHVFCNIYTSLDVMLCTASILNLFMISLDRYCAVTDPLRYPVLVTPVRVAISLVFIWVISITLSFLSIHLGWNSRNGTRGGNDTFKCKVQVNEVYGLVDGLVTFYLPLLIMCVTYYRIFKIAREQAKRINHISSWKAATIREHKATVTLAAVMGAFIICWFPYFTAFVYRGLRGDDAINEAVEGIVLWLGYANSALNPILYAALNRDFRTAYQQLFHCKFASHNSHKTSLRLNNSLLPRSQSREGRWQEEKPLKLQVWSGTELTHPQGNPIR

For `C#CCNC(=C[N+](=O)[O-])NCCSCc1ccc(CN(C)C)o1` [1-nitro-2-(2-propynylamino)-2-(2-[(5-dimethylaminomethyl-2-furyl)methylthio]ethylamino)ethylene], which “activity relative to cimetidine in a standard H2-receptor assay” value ([1]; U.S. Pat. No. 4,203,909) is on record?
The value was 7.45 times the activity of cimetidine.

With `CNC(=NC#N)NCCSCc1csc(NC(=N)N)n1` [2-guanidino-4-[2-(2-cyano-3-methylguanidino)ethylthiomethyl]thiazole] as the molecule, how does the “H2-receptor antagonist activity in words” value [1] read?
The value was “greatly increased activity over cimetidine”.

Which “antisecretory potency relative to cimetidine, iv route” value [2] does the source give for `Cc1cccc(Cc2c[nH]c(NCCSCc3csc(CN(C)C)n3)nc2=O)n1` [6-methyl-2-pyridyl analog] here?
Its value is 14.4 X cimetidine.

With `CN(C)Cc1nc(CSCCNc2ncc(Cc3cccnc3)c(=O)[nH]2)cs1` [Example 1, 2-[2-(2-dimethylaminomethyl-4-thiazolylmethylthio)ethyl]amino-5-(3-pyridyl)methyl-4-pyrimidone] as the molecule, how does the Kd [3] read?
The Kd was 1.1 nM.

What about the IC50 [4] of the same molecule?
The IC50 was 115 nM.

And the “recovery of acid secretions from an effective dose” value [2]?
The value was “about 25%”.

What about the “antisecretory potency relative to cimetidine, iv route” value [2] of the same molecule?
Its value is 11 X cimetidine.

And the “antisecretory potency relative to cimetidine, orally” value ([2]; orally 75 min. prior to collection of gastric secretion)?
The value was 14 X cimetidine.

With `CN(C)Cc1nc(CSCCNc2nc(=O)c(Cc3ccc4c(c3)OCO4)c[nH]2)cs1` [Example 2, 2-[2-(2-dimethylaminomethyl-4-thiazolylmethylthio)ethyl]amino-5-[5-(1,3-benzodioxoly)]methyl-4-pyrimidone] as the molecule, how does the Kd [3] read?
Its Kd is 4.37 nM.

And the IC50 [4]?
Its IC50 is 11100 nM.

For `Cc1ccc(Cc2cnc(NCCSCc3csc(CN(C)C)n3)[nH]c2=O)cn1` [Example 3, 2-[2-(2-dimethylaminomethyl-4-thiazolylmethylthio)ethyl]amino-5-(6-methyl-3-pyridyl)methyl-4-pyrimidone], which Kd [3] is on record?
Its Kd is 11.2 nM.

What about the IC50 [4] of the same molecule?
Its IC50 is 1350 nM.

For `COc1ccc(Cc2cnc(NCCSCc3csc(CN(C)C)n3)[nH]c2=O)cn1` [Example 4, 2-[2-(2-dimethylaminomethyl-4-thiazolylmethylthio)ethyl]amino-5-(6-methoxy-3-pyridyl)methyl-4-pyrimidone], which Kd [3] is on record?
Its Kd is 60.3 nM.

And the IC50 [4]?
The IC50 was 12600 nM.

What does the source list for `Cc1cc(Cc2cnc(NCCSCc3csc(CN(C)C)n3)[nH]c2=O)cnc1C` [Example 5, 2-[2-(2-dimethylaminomethyl-4-thiazolylmethylthio)ethyl]amino-5-(5,6-dimethyl-3-pyridyl)methyl-4-pyrimidone]?
Kd [3]: 3.89 nM; IC50 [4]: 2350 nM

With `CN(C)Cc1nc(CSCCNc2ncc(Cc3ccc(O)nc3)c(=O)[nH]2)cs1` [Example 6, 2-[2-(2-dimethylaminomethyl-4-thiazolylmethylthio)ethyl]amino-5-(6-hydroxy-3-pyridyl)methyl-4-pyrimidone] as the molecule, how does the IC50 [4] read?
Its IC50 is 252 nM.

Which IC50 [4] does the source give for `COc1cc(Cc2cnc(NCCSCc3csc(CN(C)C)n3)[nH]c2=O)ccn1` [Example 7, 2-[2-(2-dimethylaminomethyl-4-thiazolylmethylthio)ethyl]amino-5-(2-methoxy-4-pyridyl)methyl-4-pyrimidone] here?
Its IC50 is 3000 nM.

Which IC50 [4] does the source give for `Cc1nc(NCCSCc2csc(CN(C)C)n2)[nH]c(=O)c1Cc1cccnc1` [Example 8, 2-[2-(2-dimethylaminomethyl-4-thiazolylmethylthio)ethyl]amino-5-(3-pyridyl)methyl-6-methyl-4-pyrimidone] here?
Its IC50 is 2000 nM.

For `CN(C)Cc1nc(CSCCNc2ncc(Cc3ccnc(O)c3)c(=O)[nH]2)cs1` [Example 9, 2-[2-(2-dimethylaminomethyl-4-thiazolylmethylthio)ethyl]amino-5-(2-hydroxy-4-pyridyl)methyl-4-pyrimidone], which IC50 [4] is on record?
Its IC50 is 603 nM.

With `CN(C)Cc1nc(CSCCNc2ncc(Cc3ccccn3)c(=O)[nH]2)cs1` [Example 10, 2-[2-(2-dimethylaminomethyl-4-thiazolylmethylthio)ethyl]amino-5-(2-pyridyl)methyl-4-pyrimidone] as the molecule, how does the Kd [3] read?
Its Kd is 17.4 nM.

And the IC50 [4]?
The IC50 was 163 nM.

For `CN(C)Cc1nc(CSCCNc2ncc(Cc3ccncc3)c(=O)[nH]2)cs1` [Example 11, 2-[2-(2-dimethylaminomethyl-4-thiazolylmethylthio)ethyl]amino-5-(4-pyridyl)methyl-4-pyrimidone], which Kd [3] is on record?
Its Kd is 12.9 nM.

And the IC50 [4]?
Its IC50 is 196 nM.

Which “H2-receptor antagonist activity in words” value [1] does the source give for `CNC(=S)NCCCCc1cnc[nH]1` [burimamide] here?
Its value is “powerful H2 -receptor antagonist”.

Which “recovery of acid secretions from an effective dose” value [2] does the source give for `CNC(=NCCSCc1nc[nH]c1C)NC#N` [cimetidine, N-cyano-N'-methyl-N"-[2-([(5-methyl-1H-imidazol-4-yl)methyl]thio)ethyl]guanidine, reference compound] here?
The value was about 50%.
